Experimental data from US12077503B2, “Substituted cyclic amides and their use as herbicides” (FMC CORPORATION, priority 2015, dated 2024).

How the values were obtained:
Type in all cases: in vivo
[1] = test system: barnyardgrass (Echinochloa crus-galli); experiment: Test A postemergence; conditions: Echinochloa crus-galli, post-emergence, 240 h, Postemergence; for pest or weed control at 125 g/ha: 125 g ai/ha, visual rating about 10 d after treatment, read-out: Barnyardgrass plant response rating (0 to 100 scale, 0 no effect, 100 complete control); for pest or weed control at 31 g/ha: 31 g ai/ha, 0 is no effect, 100 is complete control, read-out: Barnyardgrass plant response rating (0 to 100 scale)
How it was run: (§1)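 Preemergence soil spray on seeded pots or post-emergence spray on 1–2 leaf plants, in loam–sand blend. Greenhouse ~10 d. Visual rating 0–100 against untreated plants.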

[2] = test system: blackgrass (Alopecurus myosuroides); experiment: Test A postemergence; conditions: Alopecurus myosuroides, post-emergence, 240 h, Postemergence, read-out: Blackgrass plant response rating (0 to 100 scale); for pest or weed control at 125 g/ha: 125 g ai/ha, visual rating about 10 d after treatment; for pest or weed control at 31 g/ha: 31 g ai/ha, 0 is no effect, 100 is complete control
How it was run: as §1

corn (Zea mays) = experiment: Test A postemergence; conditions: Zea mays, post-emergence, 240 h, Postemergence, read-out: Corn plant response rating (0 to 100 scale); for plant injury at 125 g/ha: 125 g ai/ha, visual rating about 10 d after treatment; for plant injury at 31 g/ha: 31 g ai/ha, 0 is no effect, 100 is complete control
How it was run: as §1

[3] = test system: giant foxtail (Setaria faberii); experiment: Test A postemergence; conditions: Setaria faberi, post-emergence, 240 h, Postemergence, read-out: Foxtail, Giant plant response rating (0 to 100 scale); for pest or weed control at 125 g/ha: 125 g ai/ha, visual rating about 10 d after treatment; for pest or weed control at 31 g/ha: 31 g ai/ha, 0 is no effect, 100 is complete control
How it was run: as §1

Kochia (Kochia scoparia) [4] = experiment: Test A postemergence; conditions: Bassia scoparia, post-emergence, 240 h, Postemergence, read-out: Kochia plant response rating (0 to 100 scale); for pest or weed control at 125 g/ha: 125 g ai/ha, visual rating about 10 d after treatment; for pest or weed control at 31 g/ha: 31 g ai/ha, 0 is no effect, 100 is complete control
How it was run: as §1

[5] = test system: pigweed (Amaranthus retroflexus); experiment: Test A postemergence; conditions: Amaranthus retroflexus, post-emergence, 240 h, Postemergence, read-out: Pigweed plant response rating (0 to 100 scale); for pest or weed control at 125 g/ha: 125 g ai/ha, visual rating about 10 d after treatment; for pest or weed control at 31 g/ha: 31 g ai/ha, 0 is no effect, 100 is complete control
How it was run: as §1

[6] = test system: wheat (Triticum aestivum); experiment: Test A postemergence; conditions: Triticum aestivum, post-emergence, 240 h, Postemergence, read-out: Wheat plant response rating (0 to 100 scale); for plant injury at 125 g/ha: 125 g ai/ha, visual rating about 10 d after treatment; for plant injury at 31 g/ha: 31 g ai/ha, 0 is no effect, 100 is complete control
How it was run: as §1

[7] = test system: ragweed (common ragweed, Ambrosia elatior); experiment: Test A postemergence; conditions: Ambrosia artemisiifolia, post-emergence, 240 h, Postemergence, read-out: Ragweed plant response rating (0 to 100 scale); for pest or weed control at 125 g/ha: 125 g ai/ha, visual rating about 10 d after treatment; for pest or weed control at 31 g/ha: 31 g ai/ha, 0 is no effect, 100 is complete control
How it was run: as §1

[8] = test system: Galium (catchweed bedstraw, Galium aparine); experiment: Test A postemergence; conditions: Galium, post-emergence, 240 h, Postemergence, read-out: Galium plant response rating (0 to 100 scale); for pest or weed control at 125 g/ha: 125 g ai/ha, visual rating about 10 d after treatment; for pest or weed control at 31 g/ha: 31 g ai/ha, 0 is no effect, 100 is complete control
How it was run: as §1

[9] = test system: ryegrass, Italian (Italian ryegrass, Lolium multiflorum); experiment: Test A postemergence; conditions: Lolium multiflorum, post-emergence, 240 h, Postemergence, read-out: Ryegrass, Italian plant response rating (0 to 100 scale); for pest or weed control at 125 g/ha: 125 g ai/ha, visual rating about 10 d after treatment; for pest or weed control at 31 g/ha: 31 g ai/ha, 0 is no effect, 100 is complete control
How it was run: as §1

[10] = test system: barnyardgrass (Echinochloa crus-galli); experiment: Test A preemergence; conditions: Echinochloa crus-galli, pre-emergence, 240 h, 0 to 100 scale where 0 is no effect and 100 is complete control, read-out: Barnyardgrass plant response rating; for pest or weed control at 31 g/ha: 31 g ai/ha, Preemergence; for pest or weed control at 125 g/ha: 125 g ai/ha, preemergence, visual injury rating, approximately 10 d
How it was run: as §1

[11] = test system: giant foxtail (Setaria faberii); experiment: Test A preemergence; conditions: Setaria faberi, pre-emergence, 240 h, 0 to 100 scale where 0 is no effect and 100 is complete control, read-out: Foxtail, Giant plant response rating; for pest or weed control at 31 g/ha: 31 g ai/ha, Preemergence; for pest or weed control at 125 g/ha: 125 g ai/ha, preemergence, visual injury rating, approximately 10 d
How it was run: as §1

Kochia (Kochia scoparia) [12] = experiment: Test A preemergence; conditions: Bassia scoparia, pre-emergence, 240 h, 0 to 100 scale where 0 is no effect and 100 is complete control, read-out: Kochia plant response rating; for pest or weed control at 31 g/ha: 31 g ai/ha, Preemergence; for pest or weed control at 125 g/ha: 125 g ai/ha, preemergence, visual injury rating, approximately 10 d
How it was run: as §1

[13] = test system: pigweed (Amaranthus retroflexus); experiment: Test A preemergence; conditions: Amaranthus retroflexus, pre-emergence, 240 h, 0 to 100 scale where 0 is no effect and 100 is complete control, read-out: Pigweed plant response rating; for pest or weed control at 31 g/ha: 31 g ai/ha, Preemergence; for pest or weed control at 125 g/ha: 125 g ai/ha, preemergence, visual injury rating, approximately 10 d
[14] = test system: ragweed (common ragweed, Ambrosia elatior); experiment: Test A preemergence; conditions: Ambrosia artemisiifolia, pre-emergence, 240 h, 0 to 100 scale where 0 is no effect and 100 is complete control, read-out: Ragweed plant response rating; for pest or weed control at 31 g/ha: 31 g ai/ha, Preemergence; for pest or weed control at 125 g/ha: 125 g ai/ha, preemergence, visual injury rating, approximately 10 d
How it was run: as §1

[15] = test system: ryegrass, Italian (Italian ryegrass, Lolium multiflorum); experiment: Test A preemergence; conditions: Lolium multiflorum, pre-emergence, 240 h, 0 to 100 scale where 0 is no effect and 100 is complete control, read-out: Ryegrass, Italian plant response rating; for pest or weed control at 31 g/ha: 31 g ai/ha, Preemergence; for pest or weed control at 125 g/ha: 125 g ai/ha, preemergence, visual injury rating, approximately 10 d
How it was run: as §1

[16] = test system: ducksalad (Heteranthera limosa); experiment: Test B flooded paddy test; conditions: Heteranthera limosa, 250 g ai/ha, Flood; 0 to 100 scale where 0 is no effect and 100 is complete control; read-out: Ducksalad plant response rating
How it was run: (§2)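 Percent control, visually estimated after 13–15 d in the greenhouse on a 0–100 basis, compares treated pots with untreated ones; compound was put into paddy water 3 cm above the soil when plants had two leaves.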

[17] = test system: barnyardgrass (Echinochloa crus-galli); experiment: Test B flooded paddy test; conditions: Echinochloa crus-galli, 250 g ai/ha, Flood; 0 to 100 scale where 0 is no effect and 100 is complete control; read-out: Barnyardgrass plant response rating
How it was run: as §2

rice (Oryra sativa) = experiment: Test B flooded paddy test; conditions: Oryza sativa, 250 g ai/ha, Flood; 0 to 100 scale where 0 is no effect and 100 is complete control; read-out: Rice plant response rating
How it was run: as §2

[18] = test system: sedge, umbrella (small-flower umbrella sedge, Cyperus difformis); experiment: Test B flooded paddy test; conditions: Cyperus difformis, 250 g ai/ha, Flood; 0 to 100 scale where 0 is no effect and 100 is complete control; read-out: Sedge, Umbrella plant response rating
How it was run: as §2

SMILES | pest or weed control at 125 g/ha [1] | pest or weed control at 31 g/ha [1] | pest or weed control at 125 g/ha [2] | pest or weed control at 31 g/ha [2] | plant injury at 125 g/ha (corn (Zea mays)) | plant injury at 31 g/ha (corn (Zea mays)) | pest or weed control at 125 g/ha [3] | pest or weed control at 31 g/ha [3] | pest or weed control at 125 g/ha (Kochia (Kochia scoparia) [4]) | pest or weed control at 31 g/ha (Kochia (Kochia scoparia) [4]) | pest or weed control at 125 g/ha [5] | pest or weed control at 31 g/ha [5] | plant injury at 125 g/ha [6] | plant injury at 31 g/ha [6] | pest or weed control at 125 g/ha [7] | pest or weed control at 31 g/ha [7] | pest or weed control at 125 g/ha [8] | pest or weed control at 31 g/ha [8] | pest or weed control at 125 g/ha [9] | pest or weed control at 31 g/ha [9] | other results
CN1C[C@H](c2csc3c2CCOC3)[C@@H](C(=O)Nc2ccccc2F)C1=O [Compound 1267] | 90% | 60% | 0% | 0% | 0% | 0% | 90% | 60% | 0% | 0% | 0% | 0% | 0% | 0% | 0% | 0% | 0% | 0% | 0% | 0% | pest or weed control at 31 g/ha [10]: 90%; pest or weed control at 125 g/ha [10]: 90%; pest or weed control at 31 g/ha [11]: 90%; pest or weed control at 125 g/ha [11]: 90%; pest or weed control at 31 g/ha (Kochia (Kochia scoparia) [12]): 0%; pest or weed control at 125 g/ha (Kochia (Kochia scoparia) [12]): 0%; pest or weed control at 31 g/ha [13]: 0%; pest or weed control at 125 g/ha [13]: 0%; pest or weed control at 31 g/ha [14]: 0%; pest or weed control at 125 g/ha [14]: 0%; pest or weed control at 31 g/ha [15]: 0%; pest or weed control at 125 g/ha [15]: 0%; pest or weed control at 250 g/ha [16]: 90%; pest or weed control at 250 g/ha [17]: 90%; pest or weed control at 250 g/ha (rice (Oryra sativa)): 0%; pest or weed control at 250 g/ha [18]: 0%
CN1C[C@H](c2cc(Cl)cc(Cl)c2)[C@@H](C(=O)Nc2cccc(F)c2F)C1=O [Compound 1270] | 90% | 90% | 40% | 0% | 20% | 0% | 80% | 60% | 60% | 0% | 60% | 40% | 40% | 0% | 0% | 0% | 70% | 60% | 30% | 0% | pest or weed control at 31 g/ha [10]: 70%; pest or weed control at 125 g/ha [10]: 90%; pest or weed control at 31 g/ha [11]: 90%; pest or weed control at 125 g/ha [11]: 90%; pest or weed control at 31 g/ha (Kochia (Kochia scoparia) [12]): 40%; pest or weed control at 125 g/ha (Kochia (Kochia scoparia) [12]): 60%; pest or weed control at 31 g/ha [13]: 0%; pest or weed control at 125 g/ha [13]: 40%; pest or weed control at 31 g/ha [14]: 0%; pest or weed control at 125 g/ha [14]: 30%; pest or weed control at 31 g/ha [15]: 0%; pest or weed control at 125 g/ha [15]: 40%; pest or weed control at 250 g/ha [16]: 80%; pest or weed control at 250 g/ha [17]: 60%; pest or weed control at 250 g/ha (rice (Oryra sativa)): 15%; pest or weed control at 250 g/ha [18]: 0%
